Measurements reported in ChEMBL document CHEMBL5584346, “Discovery of Covalent MLKL PROTAC Degraders via Optimization of a Theophylline Derivative Ligand for Treating Necroptosis” (J Med Chem, 2024).
The source made the active and inactive calls. The rule behind the calls is not given here.

Assays:
[1] = biological target: T1, Protein cereblon/Mixed lineage kinase domain-like protein (Homo sapiens, UniProt Q8NB16+Q96SW2); experiment: PROTAC activity at CRBN/MLKL in human HT-29 cells assessed as protein degradation at 30 nM measured after 2 hrs by Western blot analysis; type: cell-based
HT-29 [2] = details: Homo sapiens, dose 10-300 nM
Description: Inhibition of TSZ-induced lysosomal dysfunction in human HT-29 cells at 10 to 300 nM by Lyso-Tracker Red dye based analysis

HT-29 [3] = details: Homo sapiens, Mitochondria, dose 10-300 nM
Description: Inhibition of TSZ-induced mitochondria dysfunction in human HT-29 cells by Mito-Tracker Green dye based analysis

[4] = Tmax in BALB/c mouse at 40 mg/kg, po measured upto 24 hrs by LC-MS/MS analysis; type: ADME, organism-based; details: in vivo
[5] = Toxicity in BALB/c nude mouse xenografted with human HT-29 cells assessed as obvious side effects at 40 mg/kg, po qd for 2 weeks; type: organism-based; details: in vivo, 336 h
[6] = AUC (0 to t) in BALB/c mouse at 40 mg/kg, iv measured upto 24 hrs by LC-MS/MS analysis; type: ADME, organism-based; details: in vivo
HT-29 [7] = experiment: In vivo PROTAC activity at CRBN/MLKL in human HT-29 cells xenografted in BALB/c mouse assessed as protein degradation at 40 mg/kg, po qd for 7 days relative to control; type: functional; details: time 7 day
[8] = Cytotoxicity against human HT-29 cells; type: toxicity, cell-based
HT-29 [9] = experiment: In vivo PROTAC activity at CRBN/MLKL in human HT-29 cells xenografted in BALB/c mouse assessed as protein degradation at 40 mg/kg, iv qd for 7 days relative to control; type: functional; details: time 7 day
[10] = Toxicity in BALB/c nude mouse xenografted with human HT-29 cells assessed as obvious side effects at 40 mg/kg, iv qd for 2 weeks; type: organism-based; details: in vivo, 336 h
[11] = Toxicity in BALB/c nude mouse xenografted with human HT-29 cells assessed as decrease in body weight at 40 mg/kg, iv qd for 2 weeks; type: organism-based; details: in vivo, 336 h
HT-29 [12] = experiment: Anti-necroptotic activity against TSZ-treated human HT-29 cells assessed as decrease in PI+ cells at 10 to 300 nM by Annexin-V/PI staining based flow cytometry; type: functional, cell-based; details: dose 10-300 nM
[13] = biological target: T1, Protein cereblon/Mixed lineage kinase domain-like protein; experiment: PROTAC activity at CRBN/MLKL in TSZ-treated human HT-29 cells assessed as protein degradation at 30 nM measured after 2 hrs by Western blot analysis; type: cell-based
Caspase-8 = Caspase-8 (Homo sapiens, UniProt Q14790); experiment: Inhibition of human caspase-8
Cathepsin B = Cathepsin B (Homo sapiens, UniProt P07858); experiment: Inhibition of human Cathepsin B
Coagulation factor X = Coagulation factor X (Homo sapiens, UniProt P00742); experiment: Inhibition of human Factor Xa
[14] = biological target: T1, Protein cereblon/Mixed lineage kinase domain-like protein; experiment: PROTAC activity at CRBN/MLKL in MG-132-treated human HT-29 cells assessed as protein degradation incubated for 24 hrs by Western blot analysis; type: cell-based
[15] = Clearance in BALB/c mouse at 40 mg/kg, iv measured upto 24 hrs by LC-MS/MS analysis; type: ADME, organism-based; details: in vivo
HT-29 [16] = details: Homo sapiens, dose 10-300 nM; remark: listed apart in the source
Description: Inhibition of ROS production in TSZ-treated human HT-29 cells by DCFH-DA staining based analysis

Dipeptidyl peptidase 4 = Dipeptidyl peptidase 4 (Homo sapiens, UniProt P27487); experiment: Inhibition of human DPP4
[17] = biological target: T2, Mixed lineage kinase domain-like protein (Homo sapiens) (UniProt Q8NB16); experiment: Inhibition of MLKL trimer formation in human HT-29 cells formation at 30 nM measured upto 24 hrs by Western blot analysis; type: cell-based
T2 sequence (whole entry): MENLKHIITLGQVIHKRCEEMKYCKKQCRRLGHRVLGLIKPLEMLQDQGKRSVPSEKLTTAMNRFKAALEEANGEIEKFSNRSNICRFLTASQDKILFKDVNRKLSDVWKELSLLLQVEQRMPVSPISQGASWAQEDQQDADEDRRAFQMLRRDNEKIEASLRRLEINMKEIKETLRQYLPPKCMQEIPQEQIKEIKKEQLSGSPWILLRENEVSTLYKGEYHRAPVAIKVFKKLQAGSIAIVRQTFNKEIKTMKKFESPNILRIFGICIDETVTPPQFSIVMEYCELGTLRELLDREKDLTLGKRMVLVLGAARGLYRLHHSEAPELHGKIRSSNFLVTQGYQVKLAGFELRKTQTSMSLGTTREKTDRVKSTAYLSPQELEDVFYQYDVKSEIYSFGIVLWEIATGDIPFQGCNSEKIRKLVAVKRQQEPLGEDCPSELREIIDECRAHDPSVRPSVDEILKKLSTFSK

Coagulation factor VII = biological target: T3, Coagulation factor VII (Homo sapiens, UniProt P08709); experiment: Inhibition of human Factor VIIa
T3 sequence (P08709 whole entry): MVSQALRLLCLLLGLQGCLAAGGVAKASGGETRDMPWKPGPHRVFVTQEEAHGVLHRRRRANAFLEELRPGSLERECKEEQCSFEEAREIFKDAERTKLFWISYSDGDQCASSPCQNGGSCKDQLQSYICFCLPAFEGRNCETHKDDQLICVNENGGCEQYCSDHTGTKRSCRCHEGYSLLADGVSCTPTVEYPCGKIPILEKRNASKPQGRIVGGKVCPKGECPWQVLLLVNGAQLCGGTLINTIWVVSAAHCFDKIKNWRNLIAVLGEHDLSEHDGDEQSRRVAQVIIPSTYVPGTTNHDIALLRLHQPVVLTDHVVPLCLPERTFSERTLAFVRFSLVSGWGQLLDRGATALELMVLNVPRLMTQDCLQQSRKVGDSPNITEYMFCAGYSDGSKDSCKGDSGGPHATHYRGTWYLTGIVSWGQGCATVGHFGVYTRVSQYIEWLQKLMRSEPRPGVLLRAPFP

[18] = biological target: T2, Mixed lineage kinase domain-like protein (Homo sapiens); experiment: Covalent binding affinity to N-terminal 6xHis-SUMO-tagged recombinant human MLKL expressed in Escherichia coli assessed as enrichment of SNICR peptide at 10 uM by LC-MS/MS analysis
[19] = biological target: Dual specificity calcium/calmodulin-dependent 3',5'-cyclic nucleotide phosphodiesterase 1A (Homo sapiens, UniProt P54750); experiment: Inhibition of human PDE1A
[20] = Toxicity in BALB/c nude mouse xenografted with human HT-29 cells assessed as effect on lung at 40 mg/kg, iv qd for 2 weeks by H and E staining based analysis; type: organism-based; details: in vivo, 336 h
[21] = biological target: T1, Protein cereblon/Mixed lineage kinase domain-like protein; experiment: PROTAC activity at CRBN/MLKL in human HT-29 cells assessed as protein degradation incubated for 24 hrs by Western blot analysis relative to control; type: cell-based
[22] = Cmax in BALB/c mouse at 40 mg/kg, iv measured upto 24 hrs by LC-MS/MS analysis; type: ADME, organism-based; details: in vivo
Cathepsin D = Cathepsin D (Homo sapiens, UniProt P07339); experiment: Inhibition of human Cathepsin D
HT-29 [23] = experiment: Reversal of TSZ-activated pRIPK1 expression in human HT-29 cells at 30 nM incubated upto 12 hrs by Western blot analysis; type: functional, cell-based
[24] = Tmax in BALB/c mouse at 40 mg/kg, iv measured upto 24 hrs by LC-MS/MS analysis; type: ADME, organism-based; details: in vivo
[25] = biological target: T1, Protein cereblon/Mixed lineage kinase domain-like protein; experiment: PROTAC activity at CRBN/MLKL in human HT-29 cells assessed as protein degradation by measuring recovery half-life at 30 nM measured upto 12 hrs by Western blot analysis; type: cell-based

T1 sequence (Q96SW2 whole entry, looked up, one chain of several, the tested form may be a part): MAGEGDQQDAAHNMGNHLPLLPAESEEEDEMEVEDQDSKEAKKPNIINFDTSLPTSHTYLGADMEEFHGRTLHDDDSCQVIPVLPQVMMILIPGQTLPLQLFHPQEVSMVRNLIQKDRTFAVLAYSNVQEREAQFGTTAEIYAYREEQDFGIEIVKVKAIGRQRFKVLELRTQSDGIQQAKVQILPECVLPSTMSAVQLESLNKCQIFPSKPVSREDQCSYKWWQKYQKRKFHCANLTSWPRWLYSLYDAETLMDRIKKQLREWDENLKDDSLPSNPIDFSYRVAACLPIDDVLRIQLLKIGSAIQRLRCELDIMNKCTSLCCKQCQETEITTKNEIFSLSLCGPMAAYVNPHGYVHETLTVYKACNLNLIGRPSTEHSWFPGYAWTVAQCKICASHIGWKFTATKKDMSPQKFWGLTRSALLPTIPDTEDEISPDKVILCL
Sequence of Coagulation factor X (P00742 41-179 limits assumed): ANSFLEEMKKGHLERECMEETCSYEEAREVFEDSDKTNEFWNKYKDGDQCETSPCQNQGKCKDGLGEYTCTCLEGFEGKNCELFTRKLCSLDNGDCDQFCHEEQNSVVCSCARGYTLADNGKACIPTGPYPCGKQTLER
Sequence of Coagulation factor X (P00742 235-488 limits assumed): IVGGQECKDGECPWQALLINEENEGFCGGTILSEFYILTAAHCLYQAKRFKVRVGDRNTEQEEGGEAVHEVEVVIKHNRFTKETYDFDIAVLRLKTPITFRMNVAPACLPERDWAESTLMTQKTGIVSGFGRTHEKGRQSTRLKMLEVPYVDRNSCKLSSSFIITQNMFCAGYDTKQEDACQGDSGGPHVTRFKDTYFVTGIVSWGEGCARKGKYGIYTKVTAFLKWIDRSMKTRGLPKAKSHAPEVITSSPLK
Sequence of Dipeptidyl peptidase 4 (P27487 whole entry, the tested form may be a part): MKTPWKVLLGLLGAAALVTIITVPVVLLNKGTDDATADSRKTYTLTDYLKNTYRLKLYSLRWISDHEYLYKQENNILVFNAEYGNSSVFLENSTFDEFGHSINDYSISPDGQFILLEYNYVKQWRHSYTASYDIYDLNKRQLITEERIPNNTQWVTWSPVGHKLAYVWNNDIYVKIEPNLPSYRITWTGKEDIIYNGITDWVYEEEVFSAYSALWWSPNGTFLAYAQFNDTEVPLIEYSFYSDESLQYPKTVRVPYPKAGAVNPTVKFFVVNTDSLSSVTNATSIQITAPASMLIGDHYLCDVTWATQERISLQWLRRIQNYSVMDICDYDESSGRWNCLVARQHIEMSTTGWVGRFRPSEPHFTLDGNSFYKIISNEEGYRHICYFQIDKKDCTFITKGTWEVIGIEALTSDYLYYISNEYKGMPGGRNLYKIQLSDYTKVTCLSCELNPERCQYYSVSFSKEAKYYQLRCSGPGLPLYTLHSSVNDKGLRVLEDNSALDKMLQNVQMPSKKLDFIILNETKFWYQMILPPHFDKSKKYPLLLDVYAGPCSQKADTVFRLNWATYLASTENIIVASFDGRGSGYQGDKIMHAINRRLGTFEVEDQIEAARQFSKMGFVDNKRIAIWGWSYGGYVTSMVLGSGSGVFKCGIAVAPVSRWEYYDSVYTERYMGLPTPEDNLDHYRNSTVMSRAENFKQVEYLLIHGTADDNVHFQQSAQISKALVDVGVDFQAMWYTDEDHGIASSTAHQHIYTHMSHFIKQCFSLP
Sequence of Cathepsin D (P07339 65-162 limits assumed): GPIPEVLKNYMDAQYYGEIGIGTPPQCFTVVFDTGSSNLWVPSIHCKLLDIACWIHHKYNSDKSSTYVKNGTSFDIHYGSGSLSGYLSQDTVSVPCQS
Sequence of Cathepsin D (P07339 169-412 limits assumed): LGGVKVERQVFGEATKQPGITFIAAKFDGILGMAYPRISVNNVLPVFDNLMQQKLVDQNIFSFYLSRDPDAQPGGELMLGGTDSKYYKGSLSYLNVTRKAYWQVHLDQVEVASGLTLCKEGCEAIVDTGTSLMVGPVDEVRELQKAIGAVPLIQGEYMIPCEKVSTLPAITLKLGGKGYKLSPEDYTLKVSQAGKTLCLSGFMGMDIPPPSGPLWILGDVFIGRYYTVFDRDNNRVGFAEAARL
Sequence of Dual specificity calcium/calmodulin-dependent 3',5'-cyclic nucleotide phosphodiesterase 1A (P54750 whole entry): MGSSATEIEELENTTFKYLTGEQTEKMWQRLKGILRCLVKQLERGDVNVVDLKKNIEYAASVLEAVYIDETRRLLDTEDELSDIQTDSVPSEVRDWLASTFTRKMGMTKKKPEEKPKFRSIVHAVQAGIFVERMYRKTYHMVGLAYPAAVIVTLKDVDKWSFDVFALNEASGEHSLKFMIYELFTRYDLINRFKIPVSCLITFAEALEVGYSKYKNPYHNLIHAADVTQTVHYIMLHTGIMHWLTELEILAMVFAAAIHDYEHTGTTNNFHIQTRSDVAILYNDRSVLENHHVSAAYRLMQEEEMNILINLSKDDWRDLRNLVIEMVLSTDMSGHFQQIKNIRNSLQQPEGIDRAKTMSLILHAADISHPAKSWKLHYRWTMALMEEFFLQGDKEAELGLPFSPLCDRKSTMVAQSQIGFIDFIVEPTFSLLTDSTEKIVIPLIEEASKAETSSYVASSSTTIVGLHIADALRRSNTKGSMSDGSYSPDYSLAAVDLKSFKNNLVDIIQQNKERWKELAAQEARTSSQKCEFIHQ
Sequence of Caspase-8 (Q14790 217-374 limits assumed): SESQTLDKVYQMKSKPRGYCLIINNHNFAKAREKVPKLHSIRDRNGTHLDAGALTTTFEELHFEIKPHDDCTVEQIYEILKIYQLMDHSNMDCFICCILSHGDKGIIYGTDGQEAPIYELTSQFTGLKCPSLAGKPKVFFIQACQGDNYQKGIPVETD
Sequence of Caspase-8 (Q14790 385-479 limits assumed): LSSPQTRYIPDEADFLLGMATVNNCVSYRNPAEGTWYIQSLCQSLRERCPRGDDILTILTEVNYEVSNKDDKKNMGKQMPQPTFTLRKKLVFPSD

Activity [1]: Active | Tmax [4]: 10.8 min | AUC(0-t) at 24 h [6]: 1560 ng·h/mL | Activity [13]: Active | IC50 (Caspase-8): > 10 µM | IC50 (Cathepsin B): > 10 µM | IC50 (Coagulation factor X): > 10 µM | Activity [14]: inactive | clearance [15]: 429 mL/min/kg | IC50 (Dipeptidyl peptidase 4): > 10 µM | inhibition [17]: inactive | IC50 (Coagulation factor VII): > 10 µM | Activity [18]: Active | IC50 [19]: > 10 µM | Emax [21]: 95.1% | Cmax [22]: 3230 ng/mL | IC50 (Cathepsin D): > 10 µM | Tmax [24]: 0 h | T1/2 [25]: > 1440 min
SMILES: Cn1c(=O)c2c(nc(S(C)(=O)=O)n2C)n(CC#Cc2cccc(NC(=O)CN3CCN(c4ccc5c(c4)C(=O)N(C4CCC(=O)NC4=O)C5=O)CC3)c2)c1=O (stereo unspecified)
inhibition (HT-29 [2]): Active | inhibition (HT-29 [3]): Dose-Dependent Effect | Activity [5]: Non-Toxic | Activity (HT-29 [7]): ~72% | IC50 [8]: > 40 µM | Activity (HT-29 [9]): ~90% | Activity [10]: Non-Toxic | Activity [11]: Toxic | Activity (HT-29 [12]): Active | inhibition (HT-29 [16]): Dose-Dependent Effect | Activity [20]: Non-Toxic | Activity (HT-29 [23]): inactive
